ChEMBL document CHEMBL1131927, “The synthesis and evaluation of temperature sensitive tubulin toxins” (Bioorg Med Chem Lett, 1999)

How the values were obtained:
Format in all cases: functional
MCF7 = test: In vitro growth inhibitory activity against human neoplastic MCF-7 cell line
NCI-H520 = test: In vitro growth inhibitory activity against human neoplastic NCI-H520 cell line
PC-3 = test: In vitro growth inhibitory activity against human neoplastic PC3 cell line
Tubulin [1] = target: T1, Tubulin (Bos taurus, UniProt Q6B856+Q862L2+Q862F3); test: Inhibition of tubulin polymerization activity using homogenous bovine brain tubulin at 30 degree C
Tubulin [2] = target: T1, Tubulin; test: Inhibition of tubulin polymerization activity using homogenous bovine brain tubulin at 37 degree C
Tubulin [3] = target: T1, Tubulin; test: Inhibition of tubulin polymerization activity using homogenous bovine brain tubulin at 45 degree C
[4] = Selectivity ratio expressed as temperature dependence at 45 Degree C to that of 30 Degree C in bovine brain tubulin

Structure (SMILES)	IC50 (Tubulin [1]) [µM]	IC50 (Tubulin [2]) [µM]	GI50 (MCF7) [µM]	GI50 (NCI-H520) [µM]	GI50 (PC-3) [µM]	IC50 (Tubulin [3]) [µM]	Selectivity [4]
COc1cc2c(c(OC)c1OC)-c1ccc(OC)c(=O)cc1[C@@H](NC(C)=O)CC2 [COLCHICINE]			<0.05	<0.05	<0.05		
COc1cc(C2CCc3cc(OC)c(OC)c(OC)c32)ccc1O (centres undefined)	46.4	46.4	>100	>100	>100	46.4	0
COc1cc2c(c(OC)c1OC)C(c1cccc(OC)c(=O)c1)CC2 (centres undefined)	108	19	75	5.4	5.2	19	5.7
CCOc1cccc(C2CCc3cc(OC)c(OC)c(OC)c32)cc1=O (centres undefined)	26.2	18.2				18	1.7
COc1ccc(C2CCc3cc(OC)c(OC)c(OC)c32)cc1O (centres undefined)	11.8	10.9	10	0.1	0.5	10.9	1.1

Second part, led by results:

IC50 (Tubulin [1]) [µM]	IC50 (Tubulin [2]) [µM]	Structure (SMILES)	GI50 (MCF7) [µM]	GI50 (NCI-H520) [µM]	GI50 (PC-3) [µM]	IC50 (Tubulin [3]) [µM]	Selectivity [4]
30.6	23.5	CNc1cccc(C2CCc3cc(OC)c(OC)c(OC)c32)cc1=O (centres undefined)					1.3
32	28.1	COc1cc2c(c(OC)c1OC)C(c1cccc(Br)c(=O)c1)CC2 (centres undefined)				22	1.45
29.5	23.6	COc1cc2c(c(OC)c1OC)C(c1cccc(N)c(=O)c1)CC2 (centres undefined)				23.6	1.25
